Entries after “also recorded” stand apart in the source; their conditions may differ.
Assays:
[1] = cited from earlier work
NMDA receptors = type: cell-based, rat; settings: 80% xenon
[2] = system: c Fos expression in arcuate nucleus of hypothalamus; experiment: c Fos expression in arcuate nucleus after NMA (inhibition of synaptic plasticity in vivo); set-up: species or system Sprague Dawley female adult rats; settings: 75% Xe + NMA 100 mg/kg s.c.
Excerpt: With exposure to NMA neuronal activation is enhanced (E vs A) which is indicative of synaptic plasticity. In the presence of both Xenon (D) and MK 801 (B), synaptic plasticity induced by NMA is inhibited. […] This is sometimes referred to as long term potentiation, an example of synaptic plasticity. […] The attenuation of c Fos expression is a reflection of the inhibition of synaptic plasticity.

GABAA receptors = biological target: T1, GABAA receptors (Bos taurus, UniProt P08219+P08220+P22300); experiment: Currents activated by GABA in voltage-clamped PA3 cells stably expressing defined GABA subunits; type: cell-based; settings: 100% xenon
T1 construct: expressed in transfected cells
T1 sequence (P08219 28-456): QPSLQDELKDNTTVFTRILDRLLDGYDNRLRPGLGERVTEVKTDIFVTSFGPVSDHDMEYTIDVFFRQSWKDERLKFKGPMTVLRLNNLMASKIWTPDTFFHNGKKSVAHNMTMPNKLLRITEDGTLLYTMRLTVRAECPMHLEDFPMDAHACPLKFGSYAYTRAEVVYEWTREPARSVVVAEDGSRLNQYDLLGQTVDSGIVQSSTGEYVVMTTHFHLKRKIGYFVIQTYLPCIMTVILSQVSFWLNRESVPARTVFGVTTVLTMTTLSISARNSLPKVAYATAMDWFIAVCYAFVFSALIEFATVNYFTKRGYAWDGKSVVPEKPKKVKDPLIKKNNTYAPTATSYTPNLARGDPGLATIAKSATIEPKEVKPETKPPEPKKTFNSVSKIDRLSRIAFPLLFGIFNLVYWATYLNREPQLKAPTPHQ
T1 sequence (P08220 26-474): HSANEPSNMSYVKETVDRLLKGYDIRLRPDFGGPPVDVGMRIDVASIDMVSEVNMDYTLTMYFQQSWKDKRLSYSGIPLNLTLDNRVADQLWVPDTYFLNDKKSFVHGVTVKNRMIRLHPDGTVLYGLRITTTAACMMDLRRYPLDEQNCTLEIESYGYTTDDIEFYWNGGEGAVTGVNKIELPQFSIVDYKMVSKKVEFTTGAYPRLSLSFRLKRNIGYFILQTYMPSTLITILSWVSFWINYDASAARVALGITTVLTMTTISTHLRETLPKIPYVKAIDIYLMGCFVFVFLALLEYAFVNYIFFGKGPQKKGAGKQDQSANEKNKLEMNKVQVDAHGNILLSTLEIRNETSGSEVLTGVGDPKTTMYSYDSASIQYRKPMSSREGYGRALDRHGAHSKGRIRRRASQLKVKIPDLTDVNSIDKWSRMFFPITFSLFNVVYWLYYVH
T1 sequence (P22300 40-475): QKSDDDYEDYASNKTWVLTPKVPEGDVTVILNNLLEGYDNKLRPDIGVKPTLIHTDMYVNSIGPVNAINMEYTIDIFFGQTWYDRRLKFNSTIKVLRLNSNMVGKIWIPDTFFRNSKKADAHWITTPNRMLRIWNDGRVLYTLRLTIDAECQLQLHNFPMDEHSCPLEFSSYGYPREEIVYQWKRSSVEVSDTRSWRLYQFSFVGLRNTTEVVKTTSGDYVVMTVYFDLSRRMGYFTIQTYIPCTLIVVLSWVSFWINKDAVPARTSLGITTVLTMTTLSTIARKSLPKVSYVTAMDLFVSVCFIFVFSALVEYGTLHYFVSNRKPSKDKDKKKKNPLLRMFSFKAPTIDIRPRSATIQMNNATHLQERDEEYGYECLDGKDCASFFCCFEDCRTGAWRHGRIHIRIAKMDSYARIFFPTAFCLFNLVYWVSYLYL
Excerpt: Studies carried out by the applicant have shown that xenon has virtually no effect on GABAA receptors.

For `[Xe]` [xenon], the “Ostwald water/gas partition coefficient” value ([1]; 37° C.) is listed as 0.0887, the “Bunsen water/gas partition coefficient” value ([1]; room temperature) is listed as 0.0965 and the “change of NMDA EC50 or Hill coefficient in presence of xenon” value (NMDA receptors) is listed as “no significant change; also recorded: does not significantly change”. The “synaptic plasticity induced by NMA (c Fos expression)” value [2] was “is inhibited” and the “effect on currents activated by 3 μM GABA” value (GABAA receptors) was “not significantly affected”.

Reference: US6653354B2, “NMDA antagonist comprising xenon” (priority 1999, dated 2003)
